Assay results reported in the supplement of paper PMC10307832.

Columns and labels:
Assay in all cases: relative viability (nuclei count vs DMSO), 5 days (fraction); higher = more cells survive
NCI-H838 = test system: NCI-H838
Procedure, shortened: (§1)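 Lung cancer cell lines in 1536-well plates got either a single drug or a fixed anchor-drug dose together with five library-drug doses (not always all listed) in √10 steps, by pin tool, on the day after seeding. Nuclei were counted after 5 days, and relative viability is the treated-to-vehicle ratio of nuclei counts. Values are medians of duplicate plates.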

BEN = test system: BEN
Procedure, shortened: as §1

CAL-12T = test system: CAL-12T
Procedure, shortened: as §1

NCI-H1650 = test system: NCI-H1650
Procedure, shortened: as §1

NCI-H1793 = test system: NCI-H1793
Procedure, shortened: as §1

NCI-H2342 = test system: NCI-H2342
Procedure, shortened: as §1

LOU-NH91 = test system: LOU-NH91
Procedure, shortened: as §1

NCI-H1975 = test system: NCI-H1975
Procedure, shortened: as §1

NCI-H1437 = test system: NCI-H1437
Procedure, shortened: as §1

SK-LU-1 = test system: SK-LU-1
Procedure, shortened: as §1

LU99A = test system: LU99A
Procedure, shortened: as §1

NCI-H2085 = test system: NCI-H2085
Procedure, shortened: as §1

COR-L23 = test system: COR-L23
Procedure, shortened: as §1

NCI-H1651 = test system: NCI-H1651
Procedure, shortened: as §1

NCI-H2023 = test system: NCI-H2023
Procedure, shortened: as §1

NCI-H441 = test system: NCI-H441
Procedure, shortened: as §1

NCI-H1734 = test system: NCI-H1734
Procedure, shortened: as §1

NCI-H460 = test system: NCI-H460
Procedure, shortened: as §1

NCI-H358 = test system: NCI-H358
Procedure, shortened: as §1

NCI-H1563 = test system: NCI-H1563
Procedure, shortened: as §1

NCI-H1355 = test system: NCI-H1355
Procedure, shortened: as §1

HCC-366 = test system: HCC-366
Procedure, shortened: as §1

COc1cc2nccc(Oc3ccc(NC(=O)Nc4cc(C)on4)c(Cl)c3)c2cc1OC [Tivozanib] + Nc1nc2[nH]cc(CCc3ccc(C(=O)N[C@@H](CCC(=O)O)C(=O)O)cc3)c2c(=O)[nH]1 [Pemetrexed] (partner 0.2 µM)
relative viability (NCI-H838; first compound 0.005 µM): 0.242 | relative viability (NCI-H838; first compound 0.01581 µM): 0.253 | relative viability (NCI-H838; first compound 0.05 µM): 0.252 | relative viability (NCI-H838; first compound 0.1581 µM): 0.257 | relative viability (NCI-H838; first compound 0.5 µM): 0.22 | relative viability (BEN; first compound 0.005 µM): 0.647 | relative viability (BEN; first compound 0.01581 µM): 0.858 | relative viability (BEN; first compound 0.05 µM): 0.834 | relative viability (BEN; first compound 0.1581 µM): 0.397 | relative viability (BEN; first compound 0.5 µM): 0.689 | relative viability (CAL-12T; first compound 0.005 µM): 1.25 | relative viability (CAL-12T; first compound 0.01581 µM): 1.15 | relative viability (CAL-12T; first compound 0.05 µM): 1.13 | relative viability (CAL-12T; first compound 0.1581 µM): 1.13 | relative viability (CAL-12T; first compound 0.5 µM): 1.12 | relative viability (NCI-H1650; first compound 0.005 µM): 0.362 | relative viability (NCI-H1650; first compound 0.01581 µM): 0.342 | relative viability (NCI-H1650; first compound 0.05 µM): 0.384 | relative viability (NCI-H1650; first compound 0.1581 µM): 0.309 | relative viability (NCI-H1650; first compound 0.5 µM): 0.354 | relative viability (NCI-H1793; first compound 0.005 µM): 0.643 | relative viability (NCI-H1793; first compound 0.01581 µM): 0.854 | relative viability (NCI-H1793; first compound 0.05 µM): 1.04 | relative viability (NCI-H1793; first compound 0.5 µM): 0.999 | relative viability (NCI-H2342; first compound 0.005 µM): 0.753 | relative viability (NCI-H2342; first compound 0.01581 µM): 0.754 | relative viability (NCI-H2342; first compound 0.05 µM): 0.802 | relative viability (NCI-H2342; first compound 0.5 µM): 0.757 | relative viability (LOU-NH91; first compound 0.005 µM): 0.341 | relative viability (LOU-NH91; first compound 0.01581 µM): 0.364 | relative viability (LOU-NH91; first compound 0.05 µM): 0.371 | relative viability (LOU-NH91; first compound 0.1581 µM): 0.525 | relative viability (LOU-NH91; first compound 0.5 µM): 0.338 | relative viability (NCI-H1975; first compound 0.005 µM): 0.271 | relative viability (NCI-H1975; first compound 0.01581 µM): 0.285 | relative viability (NCI-H1975; first compound 0.05 µM): 0.283 | relative viability (NCI-H1975; first compound 0.1581 µM): 0.332 | relative viability (NCI-H1975; first compound 0.5 µM): 0.294 | relative viability (NCI-H1437; first compound 0.005 µM): 0.251 | relative viability (NCI-H1437; first compound 0.01581 µM): 0.287 | relative viability (NCI-H1437; first compound 0.05 µM): 0.366 | relative viability (NCI-H1437; first compound 0.1581 µM): 0.313 | relative viability (NCI-H1437; first compound 0.5 µM): 0.31 | relative viability (SK-LU-1; first compound 0.005 µM): 1 | relative viability (SK-LU-1; first compound 0.01581 µM): 0.928 | relative viability (SK-LU-1; first compound 0.05 µM): 0.997 | relative viability (SK-LU-1; first compound 0.1581 µM): 0.905 | relative viability (SK-LU-1; first compound 0.5 µM): 0.991 | relative viability (LU99A; first compound 0.005 µM): 0.161 | relative viability (LU99A; first compound 0.01581 µM): 0.176 | relative viability (LU99A; first compound 0.05 µM): 0.19 | relative viability (LU99A; first compound 0.1581 µM): 0.22 | relative viability (LU99A; first compound 0.5 µM): 0.193 | relative viability (NCI-H2085; first compound 0.005 µM): 0.925 | relative viability (NCI-H2085; first compound 0.01581 µM): 0.964 | relative viability (NCI-H2085; first compound 0.05 µM): 0.872 | relative viability (NCI-H2085; first compound 0.1581 µM): 0.9 | relative viability (NCI-H2085; first compound 0.5 µM): 0.899 | relative viability (COR-L23; first compound 0.005 µM): 0.193 | relative viability (COR-L23; first compound 0.01581 µM): 0.192 | relative viability (COR-L23; first compound 0.05 µM): 0.203 | relative viability (COR-L23; first compound 0.1581 µM): 0.206 | relative viability (COR-L23; first compound 0.5 µM): 0.199 | relative viability (NCI-H1651; first compound 0.005 µM): 0.54 | relative viability (NCI-H1651; first compound 0.01581 µM): 0.52 | relative viability (NCI-H1651; first compound 0.05 µM): 0.683 | relative viability (NCI-H1651; first compound 0.1581 µM): 0.421 | relative viability (NCI-H1651; first compound 0.5 µM): 0.574 | relative viability (NCI-H2023; first compound 0.005 µM): 0.405 | relative viability (NCI-H2023; first compound 0.01581 µM): 0.216 | relative viability (NCI-H2023; first compound 0.05 µM): 0.255 | relative viability (NCI-H2023; first compound 0.1581 µM): 0.224 | relative viability (NCI-H2023; first compound 0.5 µM): 0.211 | relative viability (NCI-H441; first compound 0.005 µM): 0.245 | relative viability (NCI-H441; first compound 0.01581 µM): 0.296 | relative viability (NCI-H441; first compound 0.05 µM): 0.246 | relative viability (NCI-H441; first compound 0.1581 µM): 0.249 | relative viability (NCI-H441; first compound 0.5 µM): 0.239 | relative viability (NCI-H1734; first compound 0.005 µM): 0.426 | relative viability (NCI-H1734; first compound 0.01581 µM): 0.39 | relative viability (NCI-H1734; first compound 0.05 µM): 0.404 | relative viability (NCI-H1734; first compound 0.1581 µM): 0.402 | relative viability (NCI-H1734; first compound 0.5 µM): 0.404 | relative viability (NCI-H460; first compound 0.005 µM): 0.0664 | relative viability (NCI-H460; first compound 0.01581 µM): 0.0619 | relative viability (NCI-H460; first compound 0.05 µM): 0.0637 | relative viability (NCI-H460; first compound 0.1581 µM): 0.063 | relative viability (NCI-H460; first compound 0.5 µM): 0.0689 | relative viability (NCI-H358; first compound 0.005 µM): 0.181 | relative viability (NCI-H358; first compound 0.01581 µM): 0.18 | relative viability (NCI-H358; first compound 0.05 µM): 0.161 | relative viability (NCI-H358; first compound 0.1581 µM): 0.175 | relative viability (NCI-H358; first compound 0.5 µM): 0.176 | relative viability (NCI-H1563; first compound 0.005 µM): 0.657 | relative viability (NCI-H1563; first compound 0.01581 µM): 0.887 | relative viability (NCI-H1563; first compound 0.05 µM): 0.698 | relative viability (NCI-H1563; first compound 0.1581 µM): 0.594 | relative viability (NCI-H1563; first compound 0.5 µM): 0.728 | relative viability (NCI-H1355; first compound 0.005 µM): 1.03 | relative viability (NCI-H1355; first compound 0.01581 µM): 1.01 | relative viability (NCI-H1355; first compound 0.05 µM): 1.04 | relative viability (NCI-H1355; first compound 0.1581 µM): 0.763 | relative viability (NCI-H1355; first compound 0.5 µM): 1.07 | relative viability (HCC-366; first compound 0.005 µM): 0.16 | relative viability (HCC-366; first compound 0.01581 µM): 0.192 | relative viability (HCC-366; first compound 0.05 µM): 0.162 | relative viability (HCC-366; first compound 0.1581 µM): 0.234 | relative viability (HCC-366; first compound 0.5 µM): 0.126
